# Experimental data: publication PMC8071358, “Targeting of the Essential acpP, ftsZ, and rne Genes in Carbapenem-Resistant Acinetobacter baumannii by Antisense PNA Precision Antibacterials” (Biomedicines, 2021)
# Experiments:
# Assay type in all cases: cell-based, Acinetobacter baumannii
# [1] = tested on: CRAB strain AC1; test: BPP-PNA MIC, broth microdilution; conditions: MHB without cation (Oxoid); 37 °C, 18 h
# In short: (§1)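 Non-cation-adjusted MHB, inoculum ~5 × 10^5 CFU/mL; BPP-PNA 2-fold series prepared at 16–0.5 µM before addition to wells. 37 °C, 18 h, linear shaking, OD 595 nm every 20 min. ≥2 biological × 2 technical replicates.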
# [2] = tested on: CRAB strain AC3; test: BPP-PNA MIC, broth microdilution; conditions: MHB without cation (Oxoid); 37 °C, 18 h
# In short: as §1
# [3] = tested on: CRAB strain AC4; test: BPP-PNA MIC, broth microdilution; conditions: MHB without cation (Oxoid); 37 °C, 18 h
# In short: as §1
# [4] = tested on: CRAB strain AC5; test: BPP-PNA MIC, broth microdilution; conditions: MHB without cation (Oxoid); 37 °C, 18 h
# In short: as §1
# [5] = tested on: CRAB strain AC6; test: BPP-PNA MIC, broth microdilution; conditions: MHB without cation (Oxoid); 37 °C, 18 h
# In short: as §1
# [6] = tested on: CRAB strain AC7; test: BPP-PNA MIC, broth microdilution; conditions: MHB without cation (Oxoid); 37 °C, 18 h
# In short: as §1
# [7] = tested on: CRAB strain AC8; test: BPP-PNA MIC, broth microdilution; conditions: MHB without cation (Oxoid); 37 °C, 18 h
# In short: as §1
# [8] = tested on: CRAB strain AC9; test: BPP-PNA MIC, broth microdilution; conditions: MHB without cation (Oxoid); 37 °C, 18 h
# In short: as §1
# [9] = tested on: ftsZ mRNA in CRAB AC44 strain; test: Real-time RT-PCR of target mRNA; conditions: AC44, 1 h after treatment, normalised to 16S rRNA, against untreated control
# Protocol: (§2) Real time RT-PCR was used to determine the relative expression level of the target gene upon treatment with match BPP-PNA compared to mismatch and untreated controls. The primers for q-PCR were designed to match conserved gene sequences using the AlleleID7 software (Premier Biosoft, San Francisco, CA, USA) (Table S6). Additionally, for more accurate expression of the genes at treatment and untreated conditions, the efficacy of target gene and internal controls primers was calculated by using three consecutive dilutions of the sample cDNA and drawing a standard curve through the slope of the line. […] Statistical analysis was carried out on the gene expression levels normalized to the chosen reference gene (16S rRNA) through −∆Ct analysis. The relative expression of each gene was determined by the 2^−ΔΔCT method. We used the GenEx standard (NormFinder and GeNorm) software (bioMCC, Germany) for analyzing the data.
# (§3) An overnight culture of bacteria was diluted 1:100 in MHB medium and was grown with shaking (160 rpm) at 37 °C to reach the OD595 = 0.2. Then, the bacterial culture was treated with different concentrations of BPP-PNA for 1 h and the bacterial cells were harvested by centrifugation and the cell pellet used for RNA extraction.
# (§4) Total RNA was isolated using the GeneJET RNA purification kit (ThermoFisher Scientific, Roskilde, Denmark) following the manufacturer’s protocol. RNA samples were treated with DNase for 30 min at 37 °C (Turbo DNA-free kit Ambion/Applied Biosystems, Carlsbad, CA, USA) and then incubated at 72 °C for 5 min to inactivate the DNase. The genomic DNA (gDNA) contamination was checked by polymerase chain reaction (PCR). RNA concentrations were determined by Nanodrop spectrophotometry at 260 nm and purity was checked by determining the absorption ratios at 260/280 nm. Total RNA (0.5 μg) was reverse-transcribed to yield cDNA as template for real-time quantitative PCR using the Quanti Tect reverse transcription kit (Qiagen, Copenhagen, Denmark). The cDNA was diluted 1:50 and used as a template in the reaction. […]
# [10] = tested on: acpP mRNA in CRAB AC44 strain; test: Real-time RT-PCR of target mRNA; conditions: AC44, 1 h treatment, normalised to 16S rRNA, against untreated control
# Protocol: as §2, §3, §4
Substance,"MIC, AC1 [1] [µM]","MIC, AC3 [2] [µM]","MIC, AC4 [3] [µM]","MIC, AC5 [4] [µM]","MIC, AC6 [5] [µM]","MIC, AC7 [6] [µM]","MIC, AC8 [7] [µM]","MIC, AC9 [8] [µM]",reduction in ftsZ mRNA [9],reduction in the level of the acpP mRNA [10] [fold]
"H-(KFF)3K-eg1-GAGGCCATGAC-NH2 (antisense; N-terminal (KFF)3K-eg1 peptide, C-terminal amide, backbone not given here, further chemistry not given here) [PNA 5612, anti-ftsZ peptide-PNA conjugate, match, −3 to +8]",4,4,8,4,4,4,8,2,up to 60%,–
"H-(KFF)3K-eg1-TGATTTGCCAC-NH2 (antisense; N-terminal (KFF)3K-eg1 peptide, C-terminal amide, backbone not given here, further chemistry not given here) [PNA 5639, anti-acpP peptide-PNA conjugate, match, +1 to +11]",–,–,–,–,–,–,–,–,–,> 34
